Measurements as given in US5872124A, “Treatment of diseases of the central nervous system using uric acid as a scavenger of peroxynitrite” (Thomas Jefferson University, priority 1996, dated 1999).
Entries after “also recorded” stand apart in the source; their conditions may differ. Like-named read-outs stand apart in the source and are kept apart here.

What was measured:
[1] = tested on: experimental allergic encephalomyelitis (EAE), PLP immunization; test: Clinical severity of PLP-induced EAE in SWXJ-14 mice; assay type: in vivo
Description: FIG. 2. Effect of daily administration of c-PTIO (carboxy-PTIO) on EAE in SWXJ-14 mice. EAE was induced in SWJX-14 mice by two subcutaneous immunizations (d.0 and d.7) of […] PLP in CFA over two injection sites. Mice (N=3) were treated beginning on day 5 post-immunization with 2 mg/mouse c-PTIO […] i.p. and was continued until day 16 post-immunization (day 0 being the day of first immunization). Mean severity scores were graded as detailed in Table 1.
FIG. 4. Effect of D609 on the development of EAE in SWXJ-14 mice. SWXJ-mice were immunized with PLP as detailed for FIG. 2. Mice (n=2) were treated i.p. with 1 mg/mouse D609 from day 5 through day 14 post-immunization. Mean severity scores were graded as detailed in Table 1.
FIG. 12. Effect of the administration of various doses of uric acid on EAE in SWXJ-14 mice. EAE was induced in SWXJ-14 mice by two subcutaneous immunizations (d.0 and 7) of […] PLP in CFA over two injection sites. Mice (n=5) were treated once daily, beginning on day 5 post-immunization, with the indicated doses of uric acid. Mean severity scores were graded as detailed in Table 1.
(§1) Induction of EAE in rats by adoptive transfer of MBP-specific T cells or in SJL or SWXJ-14 mice by immunization with MBP or PLP 139-151, a peptide derived from […] [8], results in variable disease. We have scored the clinical systems of EAE as tabulated below.
(§2) Severity scores and symptoms of Experimental Allergic
(§3) 1 piloerection, tail weakness
(§4) 3 hind limb weakness/paralysis
(§5) 4 hind and forelimb paralysis
(§6) In FIG. 1, EAE was elicited in 11 week old female Lewis rats by the adoptive transfer of 20×10^6 cells of the MBP-specific line 5HGBP.G5 activated by stimulation with MBP and syngeneic APC 48 hours previously and NO levels measured 5 days after transfer. In SWXJ-14 mice, EAE was triggered by two subcutaneous immunizations (d.0 and 7) with 100 μg PLP in CFA over two injection sites, and NO levels measured 18 days later. Results expressed represent the mean values obtained from a minimum of 4 animals. Peak severity of the symptoms of EAE ranged from 2-3 for the rats and 4-5 for the mice. NO was semi-quantitated using spin trapping with DETC and EPR-spectroscopy as described previously.
(§7) Clinical symptoms manifest as an ascending paralysis approximately 13 days after immunization and the disease rapidly progresses to its fatal endpoint by day 16-20. […] NO levels in the brains and spinal cords of animals treated with a single daily dose of PTIO were semi-quantitated by spin trapping and EPR spectroscopy on day 17 after immunization, one day after treatment was terminated. […] We expect that the removal of NO by PTIO should not necessarily interfere with the induction of the response responsible for NO production and that as the supplied PTIO is used up NO levels should rapidly return to control values.
(§8) In contrast to SJL mice, SWX mice immunized with PLP undergo a progressive,often fatal form of EAE. Clinical symptoms manifest as an ascending paralysis approximately 13 days after immunization and the disease rapidly progresses to its fatal endpoint by days 16-20. […] We conclude that the amount of carboxy-PTIO we administered, especially considering the short in vivo half life of the compound, was only sufficient to delay the onset of the EAE in the SWXJ-14 mouse.
NO is not universally considered to be a molecule with significant in vivo toxicity and peroxynitrite is thought to be the more toxic molecule produced by activated inflammatory cells resulting from the interaction of NO and superoxide. We would henceforth expect that removal of NO would reduce peroxynitrite formation. To determine whether NO or peroxynitrite is more likely to be ultimately responsible for clinical disease in EAE we have performed a series of experiments using uric acid, a known scavenger of peroxynitrite, to treat EAE induced in SWXJ-14 mice by immunization with PLP.

[2] = tested on: A549 cells; test: Nitrite production by activated A549 cells (Griess reaction); assay type: cell-based, human; conditions: 50 μg/ml; IL-1β, γIFN, TNFα activated
Description: FIG. 5. […] The accumulation of nitrite over time was measured in the presence and absence of D609. Human A549 cells were activated with IL-1β (100 units/ml), γIFN (500 units/ml) and TNFα (10 ng/ml), and the accumulation of nitrite over time was measured using the Griess reaction. The concentration of nitrite was calculated using a standard solution of nitrite in culture media.
We have employed the human lung carcinoma cell line A549 (ATCC) and, as for comparison, the mouse monocyte-macrophage cell line RAW 264.7 (ATCC) as producers of NO. Treatment of RAW 264.7 cells with 1 μg/ml of LPS or A549 cells with IL-1β (100 units/ml), γIFN (500 units/ml), and TNFα (10 ng/ml) stimulates the production of NO which can be detected by the accumulation of nitrite in culture supernatants. Using these methods of stimulation, RAW cells produced up to 100 μM of nitrite during 24 hours of culture while the A549 cells generally produced roughly 10 fold less nitrite in our experiments.

[3] = tested on: iNOS gene; test: Transcriptional activation of the iNOS gene in A549 cells (gel-shift assays); assay type: cell-based; conditions: 50 μg/ml, human A549 cells
[4] = tested on: iNOS gene; test: Transcriptional activation of the iNOS gene in RAW 264.7 cells (gel-shift assays); assay type: cell-based; conditions: 50 μg/ml, mouse RAW 264.7 cells
[5] = tested on: NF-κB; test: Activation of transcription factor NF-κB in A549 cells; assay type: cell-based; conditions: 50 μg/ml, human A549 cells
[6] = tested on: NF-κB; test: Activation of transcription factor NF-κB in RAW 264.7 cells; assay type: cell-based; conditions: 50 μg/ml, mouse RAW 264.7 cells
[7] = tested on: phosphatidylcholine-specific phospholipase C (PC-PLC); conditions: via blocking activation of PC-PLC [16]; cited from earlier work
[8] = tested on: experimental allergic encephalomyelitis (EAE), MBP-specific T cell transfer; test: Clinical severity of adoptive transfer EAE in Lewis rats; assay type: in vivo; conditions: EAE mediated by T cell transfer
From the text: as §1
______________________________________
as §2, §3, §4, §5, §6
Rats were injected i.v. with 20×10^6 MBP-specific CD4 T cells activated in vitro. Two days later the animals were treated with a single dose of either PTIO (20 mg) or a mixture of PTIO (20 mg), indomethacin (1 mg), and allopurinol (13 mg). Treatment was continued on a daily basis until day 4 and animals were sacrificed for NO measurement the following day.

[9] = tested on: experimental allergic encephalomyelitis (EAE), immunization-elicited; test: Clinical severity of immunization-elicited EAE in SJL mice; assay type: in vivo
From the text: as §1, §2, §3, §4, §5
(§9) SJL mice are immunized subcutaneously with pMBP in adjuvant to induce EAE, from which they often recover. Commencing ten days post-immunization, groups of mice (n=6) were treated once daily with 2 mg of either PTIO or carboxy-PTIO intraperitoneally and observed for clinical signs of EAE which were graded as detailed in Table 1. […] At 18 days […], NO determinations were performed in several mice from each group.

[10] = tested on: nitric oxide (NO); test: NO levels in spinal cord and brain of SJL mice with EAE; assay type: in vivo
Description: as §9

[11] = tested on: nitric oxide (NO); test: NO levels in brain and spinal cord of SWXJ-14 mice with EAE (spin trapping with DETC, EPR); assay type: in vivo
Description: FIG. 3. Effect of daily administration of c-PTIO on NO levels in the brain and spinal cord of SWXJ-14 mice immunized with PLP. SWXJ-14 mice were immunized as described below for FIG. 1. Beginning 4 days post immunization, mice (n=7) were treated with 2 mg c-PTIO given i.p. until 16 days post-immunization. Mean severity scores were graded as detailed in Table 1. Mean nitric oxide levels in brain and spinal cord were semi-quantitated using spin-trapping with DETC and EPR spectroscopy at 17 days post-immunization as described elsewhere. (For brain or spinal cord results are represented as follows: Left hand column: untreated. Center column: treated with c-PTIO. Right hand column: no EAE control)
FIG. 13. Effect of the administration of uric acid on brain and spinal cord NO levels and the clinical severity of EAE in SWXJ-14 mice. SWXJ-14 mice were immunized with PLP in CFA as described for FIG. 12 and treated once daily with the indicated doses of uric acid i.p. At day 16 post-immunization the animals were euthanized and NO levels in brain and spinal cord assessed as detailed for FIG. 3. Results are for individual mice. Each central white column represents the spinal cord NO level. The black column to the left of a white column represents the clinical severity score. The cross hatched column to the right of a white column represents the brain NO level.
as §6, §7, §8
At 16 days after immunization, several mice from each group were euthanized so that NO levels in their brains and spinal cords could be measured using spin-trapping and EPR spectroscopy.

[12] = Water solubility; assay type: physicochemical
[13] = rats, i.v. or i.p., estimated; cited from earlier work
[14] = mice, i.v. or i.p., estimated; cited from earlier work
[15] = tested on: experimental allergic encephalomyelitis (EAE), PLP immunization; test: Survival of SWXJ-14 mice with EAE; assay type: in vivo
Description: FIG. 14. Comparison of the survival of SWXJ-14 mice with EAE treated with PTIO and uric acid. SWXJ-mice were immunized with PLP in CFA as described for FIG. 12 and treated once daily with a 2 mg dose of uric acid or PTIO i.p. from day 5 to day 13, followed by two daily doses on day 14 and three daily doses thereafterward.
To more directly compare the action of PTIO and uric acid in EAE we have administered each of these agents in parallel to PLP-immunized SWXJ-14 mice. In these experiments the mice were immunized with PLP and treated with increasing doses of PTIO or uric acid beginning at day 5 after immunization.

[16] = day 17 after immunization, one day after treatment ended
[17] = single daily dose of 100 mg/kg, day 17

S=C(S)OC1CC2CC1C1CCCC21 (stereo not shown) [D609, tricyclodecan-9-yl-xanthogenate]
Onset of clinical symptoms of EAE (FIG. 4) ([1]; 1 mg daily i.p., day 5-14): delays the onset of the clinical symptoms of EAE | Nitrite production by A549 cells (FIG. 5) [2]: completely inhibited nitrite production; also recorded: inhibits nitrite production | Transcriptional activation of the iNOS gene [3]: inhibits the transcriptional activation of the iNOS gene | Transcriptional activation of the iNOS gene [4]: inhibits the transcriptional activation of the iNOS gene | Activation of transcription factor NF-κB [5]: inhibits | Activation of transcription factor NF-κB [6]: inhibits | Induction of iNOS [7]: inhibits the induction of iNOS by blocking the activation of phosphatidylcholine-specific phospholipase C (PC-PLC)

CC1(C)N([O])C(c2ccc(C(=O)O)cc2)=[N+]([O-])C1(C)C [carboxy-PTIO, 2-(4-carboxyphenyl)-4,4,5,5-tetramethylimidazoline-1-oxyl-3-oxide]
Treatment of EAE mediated by T cell transfer [8]: successfully treated | Onset and severity of EAE (FIG. 7) ([9]; 2 mg once daily i.p. from day 10 post-immunization, n=6): delayed onset of disease and somewhat lessened severity by comparison with untreated animals | Clinical symptoms of EAE ([9]; SJL mice, i.p. administration): forestall the appearance of clinical symptoms of EAE | Clinical severity ([9]; SJL mouse - immunization EAE, severity score 1-5, Table 2): 0.7 | Brain NO increase (FIG. 8) ([10]; 2 mg once daily i.p., day 18): also inhibited | NO levels in spinal cord (FIG. 8) ([10]; 2 mg once daily i.p., day 18): lower in the spinal cords | Levels of NO in spinal cord ([10]; SJL mice, i.p. administration): reduce levels of NO detected in spinal cord | NO-spinal cord ([10]; SJL mouse - immunization EAE, Table 2): 1.4 mM | Overall NO production and therapeutic effect in SWXJ-14 mice ([1]; carboxy-PTIO administration): limited NO production to the spinal cord and had a clear therapeutic effect | Onset and severity of clinical symptoms of EAE (FIG. 9) ([1]; single daily dose of 100 mg/kg): delays the onset and reduces the severity of the clinical symptoms of EAE | Onset and severity of clinical symptoms of EAE (FIG. 2) ([1]; two daily doses of 100 mg/kg): delays the onset and reduces the severity of the clinical symptoms of EAE | Clinical course of EAE (FIG. 11) ([1]; two daily doses of approximately 2 mg): dramatically improves the clinical course of EAE by comparison with a single daily dose | NO levels in brain (FIG. 3) [11, 16]: low levels of NO in brain tissue compared to untreated PLP-immunized controls | NO levels in spinal cord (FIG. 3) [11, 16]: somewhat less than the spinal cord NO levels detected in the surviving untreated animals | NO induction in brain (FIG. 10) [11, 17]: prevented the induction of NO in brain | NO levels in spinal cord (FIG. 10) [11, 17]: somewhat less than the spinal cord NO levels detected in the surviving untreated animals | Water solubility [12]: water soluble | Biological half-life in blood [13]: less than five | Biological half-life in blood [14]: less than five

Oc1nc(O)c2[nH]c(O)nc2n1 [uric acid, 2,6,8-trihydroxypurine]
Mice remaining healthy (FIG. 12) ([1]; high dose of uric acid): The majority of the mice treated with a high dose of uric acid remained healthy throughout the length of the experiment | Onset and severity of clinical symptoms of EAE (FIG. 12) ([1]; uric acid once daily from day 5 post-immunization): delays the onset and severity of the clinical symptoms of EAE in these animals in a dose dependent fashion | NO levels in spinal cord and brain (FIG. 13) ([11]; day 16, mice that failed to show symptoms of EAE): significant levels of NO were detected in spinal cord and brain | Improvement in clinical signs of surviving mice (FIG. 14) ([15]; at termination of the experiment): a number were actually beginning to show some improvement in the clinical signs of their disease | Mice still alive (FIG. 14) ([15]; several days after day 18, 2 mg i.p. once daily day 5-13, two doses day 14, then three daily): 80%
